# Data as given in patent US9492542B2, “Pharmaceutical composition for the treatment of MCP-1 mediated inflammatory diseases” (priority 2009, dated 2016).
# Like-named read-outs stand apart in the source and are kept apart here.
# What was measured:
# MCP-1 [1] = details: calculated versus vehicle group; same doses and schedule as E6
# Method: MCP-1 plasma levels were measured by commercially available ELISA kit.
# Drugs were intraperitoneally (ip) administered 30 minutes before LPS injection (50 μg/mouse, ip) to groups of six mice. At 3 hours following
# LPS injection, mice were anesthetized and blood was withdrawn by intracardiac puncture in order to obtain plasma (heparinized samples) to be used to measure MCP-1 levels.
# The percent reduction was calculated versus the vehicle group.
# MCP-1 [2] = assay: Effect on LPS-induced MCP-1 plasma levels in mice (Example 1, ELISA); details: calculated versus vehicle group; same doses and schedule as E1
# Method: MCP-1 plasma levels were measured by commercially available ELISA kit. Drugs were intraperitoneally (ip) administered 30 minutes before LPS injection (50 μg/mouse, ip) to groups of eight mice. […] The percent reduction was calculated versus the vehicle group.
# [3] = Effect on proteinuria in human: Urinary Albumin Excretion (UAE) in Type 2 diabetes patients (Example 2); format: in vivo; details: 8 weeks, bindarit 600 mg twice a day, irbesartan 300 mg once a day
# From the text: Irbesartan is a well known angiotensin receptor blockers (ARB). The treatment lasted 8 weeks.
SMILES,MCP-1 plasma level % reduction (MCP-1 [2]),other results
"COc1ccc(CCN(C)CCCC(C#N)(c2ccc(OC)c(OC)c2)C(C)C)cc1OC (centres unmarked) [Verapamil, verapamil]",–,MCP-1 plasma level % reduction (MCP-1 [1]): 26%
"CCOC(=O)[C@H](CCc1ccccc1)N[C@@H](C)C(=O)N1[C@H](C(=O)O)C[C@@H]2CCC[C@@H]21 [Ramipril, ramipril]",30%,–
"CCCCc1nc(Cl)c(CO)n1Cc1ccc(-c2ccccc2-c2nn[nH]n2)cc1 [Losartan, losartan]",13%,–
"CCCCC1=NC2(CCCC2)C(=O)N1Cc1ccc(-c2ccccc2-c2nnn[nH]2)cc1 [Placebo + Irbesartan, irbesartan]",–,Patient percentage with a UAE reduction equal to or higher than 25% with respect to basal value [3]: 27.5%
"CCC(C)(C)C(=O)O[C@H]1C[C@@H](C)C=C2C=C[C@H](C)[C@H](CC[C@@H]3C[C@@H](O)CC(=O)O3)[C@H]21 [Simvastatin, simvastatin]",7%,–
